The results in this text go back to ChEMBL document CHEMBL1140620, “Development of integrase inhibitors for treatment of AIDS: an overview” (Eur J Med Chem, 2007).

Bounds are passed on as bounds.

In the first assay the target is T1, Human immunodeficiency virus type 1 integrase (Human immunodeficiency virus 1, UniProt Q7ZJM1). The assay is described as follows: Inhibition of HIV1 integrase.
T1 sequence (Q7ZJM1 whole entry): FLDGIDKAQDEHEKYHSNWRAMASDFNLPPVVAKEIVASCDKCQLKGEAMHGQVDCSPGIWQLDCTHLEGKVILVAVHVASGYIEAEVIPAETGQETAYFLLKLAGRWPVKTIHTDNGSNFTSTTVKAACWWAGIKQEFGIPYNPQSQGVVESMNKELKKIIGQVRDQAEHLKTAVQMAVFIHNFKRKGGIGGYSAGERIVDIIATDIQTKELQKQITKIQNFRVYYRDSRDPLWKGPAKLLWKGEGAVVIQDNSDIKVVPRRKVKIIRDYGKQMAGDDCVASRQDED
As to `O=C(O)c1cc2cc(O)c(O)cc2[nH]1`, the IC50 – broadly, the midpoint of a concentration-inhibition curve – was < 10000 nM.

Compound `O=C1C(O)=C(O)C(O)=C2CC(O)=CC=CC12` (stereo not given) displayed a 50% inhibitory concentration (IC50) of 2100 nM.

The test system of another assay is Human immunodeficiency virus 1. The assay is described as follows: Antiviral activity against human immunodeficiency virus 1 in cell culture. In kind it is functional, organism-based.
As to `COc1cc2c(cc1Cc1cccc(Cl)c1F)c(=O)c(C(=O)O)cn2[C@H](CO)C(C)C`, the EC50 (commonly the midpoint of the concentration-response curve) came out at 0.9 nM.

In the case of `O=C(CC(=O)c1ccc(Cc2ccc(F)cc2)o1)c1nc[nH]n1`, it took 12000 nM to reach the 95% level (IC95).

In the case of `O=C(NCc1ccc(F)cc1)c1nc(N2CCCCS2(=O)=O)c2cccnc2c1O`, the concentration for an effect of 95% (IC95) (as a rule, the concentration at which the effect reaches the 95% level) turned out to be 100 nM.

Turning to `O=C(/C=C/c1cccn1Cc1ccccc1)CC(=O)C(=O)O`, a half-maximal response (EC50) required 1500 nM.

Regarding `O=C(O)C(=O)CC(=O)c1cccn1Cc1ccc(F)cc1`, the IC95 stood at 100 nM. This counts as sub-micromolar.

In a further assay the target is T1, Human immunodeficiency virus type 1 integrase. The assay is described as follows: Inhibition of HIV1 integrase-mediated 3'-end processing activity.
`O=C(O)C(=O)CC(=O)c1cc(OCc2ccccc2)cc(OCc2ccccc2)c1` gave an IC50 of 200 nM.

For the next assay the target is unchanged. As to the kind of experiment: Inhibition of HIV1 integrase strand transfer activity.
`O=C(O)C(=O)CC(=O)c1cc(OCc2ccccc2)cc(OCc2ccccc2)c1` had an IC50 of 3500 nM.

Compound `COc1cccc(CN(Cc2cccc(OC)c2)c2ccc3nc(N)[nH]c3c2)c1` returned an IC50 of 1800 nM.

In turn, `N=C(N)c1ccc2cc(C#Cc3cccc(OCc4ccccc4)c3)ccc2c1` had an IC50 of 2100 nM.

`N#C/C(=C(/O)C(=O)O)c1cn(-c2ccc(F)cc2)c2ccccc12` displayed an IC50 of 10000 nM.

`CC(C)S(=O)(=O)Nc1ccc2nc(N)[nH]c2c1` returned an IC50 of 2600 nM.

As for `O=C(c1cc(Cc2ccccc2)cc(CN2CCCS2(=O)=O)c1)c1ncc2cccnc2c1O`, the IC50 came to 10000 nM.

The compound `CC(C)(C)C1CCC(C2=NCCc3ccc([C@H]4CC4c4ccc5cc(C(=N)N)ccc5c4)cc32)CC1` (stereo not given in full) had an IC50 of 3400 nM. This IC50 lies about 2.9-fold lower than the previous one.
